Data as given in patent US10858362B2, “Imidazopyrazinones as PDE1 inhibitors” (H. Lundbeck A/S, priority 2015, dated 2020).

How the values were obtained:
Type in all cases: biochemical
PDE1C = PDE1C (Homo sapiens (Human), UniProt Q14123); assay: PDE1 inhibition assay, PDE1C; conditions: for IC50: 15 nM tritium labelled cAMP
Experimental: (§1) Reactions were initiated by addition of the cyclic nucleotide substrate, and reactions were allowed to proceed for 1 h at room temperature before being terminated through mixing with 20 μL (0.2 mg) yttrium silicate SPA beads (PerkinElmer). The beads were allowed to settle for 1 h in the dark before the plates were counted in a Wallac 1450 Microbeta counter.

PDE9 = PDE9 (Homo sapiens (Human), UniProt O76083); assay: PDE9 inhibition assay
How it was run: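 Human PDE9 in 50 mM HEPES pH 7.6, 10 mM MgCl2, 0.02% Tween20, enzyme set to convert 20-25% of 10 nM ^3H-cAMP substrate; inhibitors at varying amounts. 1 hr incubation, stopped with yttrium silicate SPA beads, settled 1 hr in dark, then scintillation counted.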

PDE1B = PDE1B (Homo sapiens (Human), UniProt Q01064); assay: PDE1 inhibition assay, PDE1B; conditions: for IC50: 15 nM tritium labelled cAMP
Experimental: as §1

PDE1A = PDE1A (Homo sapiens (Human), UniProt P54750); assay: PDE1 inhibition assay, PDE1A; conditions: for IC50: 15 nM tritium labelled cAMP
Experimental: Reactions were initiated by addition of the cyclic nucleotide substrate, and reactions were allowed to proceed for 1 h at room temperature before being terminated through mixing with 20 μL (0.2 mg) yttrium silicate SPA beads (PerkinElmer).

Chain of PDE1B (Q01064 whole entry): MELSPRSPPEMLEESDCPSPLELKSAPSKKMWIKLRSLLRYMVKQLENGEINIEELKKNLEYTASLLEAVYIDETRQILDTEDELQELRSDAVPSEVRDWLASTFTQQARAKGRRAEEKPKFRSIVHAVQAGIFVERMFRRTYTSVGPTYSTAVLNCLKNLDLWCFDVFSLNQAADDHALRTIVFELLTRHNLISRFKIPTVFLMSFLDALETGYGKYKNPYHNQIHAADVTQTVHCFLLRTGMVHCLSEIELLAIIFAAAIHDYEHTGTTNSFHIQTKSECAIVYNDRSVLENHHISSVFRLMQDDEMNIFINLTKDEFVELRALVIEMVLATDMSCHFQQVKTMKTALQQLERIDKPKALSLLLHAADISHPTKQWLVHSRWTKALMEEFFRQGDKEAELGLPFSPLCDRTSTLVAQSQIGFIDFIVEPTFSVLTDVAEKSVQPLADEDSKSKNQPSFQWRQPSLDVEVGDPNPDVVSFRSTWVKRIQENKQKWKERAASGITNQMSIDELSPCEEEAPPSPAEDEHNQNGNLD
Chain of PDE9 (O76083 whole entry): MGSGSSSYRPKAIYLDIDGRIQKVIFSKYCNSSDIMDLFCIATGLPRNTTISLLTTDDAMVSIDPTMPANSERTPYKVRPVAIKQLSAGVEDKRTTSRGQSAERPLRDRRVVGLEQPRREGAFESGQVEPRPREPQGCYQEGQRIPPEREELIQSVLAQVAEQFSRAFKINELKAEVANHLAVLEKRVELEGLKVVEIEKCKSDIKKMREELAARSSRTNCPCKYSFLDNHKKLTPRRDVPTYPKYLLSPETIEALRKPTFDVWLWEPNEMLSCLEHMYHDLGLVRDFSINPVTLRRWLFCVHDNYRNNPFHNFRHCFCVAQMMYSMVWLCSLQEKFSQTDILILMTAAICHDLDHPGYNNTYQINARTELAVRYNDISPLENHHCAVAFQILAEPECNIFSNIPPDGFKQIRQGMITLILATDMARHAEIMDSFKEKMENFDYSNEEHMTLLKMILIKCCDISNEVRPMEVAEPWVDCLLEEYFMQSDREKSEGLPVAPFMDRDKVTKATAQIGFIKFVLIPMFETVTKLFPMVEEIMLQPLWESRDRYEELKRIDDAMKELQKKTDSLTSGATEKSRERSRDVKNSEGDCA
Chain of PDE1C (Q14123 whole entry): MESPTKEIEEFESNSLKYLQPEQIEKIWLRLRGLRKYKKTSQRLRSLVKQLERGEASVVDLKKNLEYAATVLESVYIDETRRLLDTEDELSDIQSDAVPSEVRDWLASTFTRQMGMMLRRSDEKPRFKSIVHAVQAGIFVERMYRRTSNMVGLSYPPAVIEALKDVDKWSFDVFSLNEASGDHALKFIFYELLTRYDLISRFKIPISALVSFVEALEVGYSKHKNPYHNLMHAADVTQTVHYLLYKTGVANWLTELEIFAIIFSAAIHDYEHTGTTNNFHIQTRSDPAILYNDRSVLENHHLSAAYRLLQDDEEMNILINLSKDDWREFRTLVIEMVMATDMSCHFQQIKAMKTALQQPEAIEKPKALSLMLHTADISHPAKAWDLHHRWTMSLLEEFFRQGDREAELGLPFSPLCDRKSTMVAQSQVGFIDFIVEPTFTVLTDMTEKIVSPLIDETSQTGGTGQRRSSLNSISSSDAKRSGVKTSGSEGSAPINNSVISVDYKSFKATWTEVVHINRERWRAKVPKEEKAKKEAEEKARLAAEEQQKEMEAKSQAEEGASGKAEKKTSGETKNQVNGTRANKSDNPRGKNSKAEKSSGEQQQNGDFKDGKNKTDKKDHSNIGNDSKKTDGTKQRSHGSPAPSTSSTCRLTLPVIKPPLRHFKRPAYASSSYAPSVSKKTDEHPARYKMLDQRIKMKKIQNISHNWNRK
Chain of PDE1A (P54750 whole entry): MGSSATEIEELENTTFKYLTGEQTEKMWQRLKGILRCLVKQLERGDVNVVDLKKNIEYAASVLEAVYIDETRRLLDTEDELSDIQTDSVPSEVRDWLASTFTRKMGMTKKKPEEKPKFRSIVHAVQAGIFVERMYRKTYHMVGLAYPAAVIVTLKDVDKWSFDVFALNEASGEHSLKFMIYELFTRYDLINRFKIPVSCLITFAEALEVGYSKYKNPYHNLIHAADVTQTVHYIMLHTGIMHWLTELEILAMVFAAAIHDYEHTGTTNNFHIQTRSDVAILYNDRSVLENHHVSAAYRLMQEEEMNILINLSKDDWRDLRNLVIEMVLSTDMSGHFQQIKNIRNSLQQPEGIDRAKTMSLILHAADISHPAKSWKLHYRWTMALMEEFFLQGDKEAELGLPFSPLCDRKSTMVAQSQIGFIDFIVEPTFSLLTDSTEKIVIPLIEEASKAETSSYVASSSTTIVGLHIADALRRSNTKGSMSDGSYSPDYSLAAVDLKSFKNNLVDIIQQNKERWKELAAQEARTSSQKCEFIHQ

| inhibition at 1 µM (PDE1C; read-out: PDE1C, % inhibition (at 1 μM)) | inhibition at 10 µM (PDE9) | IC50 (PDE1B) | inhibition at 1 µM (PDE1A; read-out: PDE1A, % inhibition (at 1 μM)) | IC50 (PDE1C) | inhibition at 1 µM (PDE1B; read-out: PDE1B, % inhibition (at 1 μM)) | percent inhibition of PDE1A at 2 µM (PDE1A; at 2 μM, % sign not given) | IC50 (PDE1A) | inhibition at 10 µM (PDE1A; read-out: PDE1A, % inhibition (at 10 μM)) | Compound |
| --- | --- | --- | --- | --- | --- | --- | --- | --- | --- |
| 55% | 15% | 155 nM | 50% | – | – | – | – | – | Cc1cn2c(C3CCOCC3)ncc2c(=O)n1Cc1ccc(OCC2CC2)cc1 [Example 42, 7-(4-(cyclopropylmethoxy)benzyl)-6-methyl-3-(tetrahydro-2H-pyran-4-yl)imidazo[1,5-a]pyrazin-8(7H)-one] |
| – | 1% | – | – | 173 nM | 60% | 44 | – | – | CCc1ccccc1Cn1c(C)cn2c(C3CCOCC3)ncc2c1=O [Example 49, 7-(2-ethylbenzyl)-6-methyl-3-(tetrahydro-2H-pyran-4-yl)imidazo[1,5-a]pyrazin-8(7H)-one] |
| – | 6% | 32 nM | – | 9 nM | – | – | 105 nM | – | CCc1cn2c(C3CCOCC3)ncc2c(=O)n1Cc1ccccc1 [Example 43, 7-benzyl-6-ethyl-3-(tetrahydro-2H-pyran-4-yl)imidazo[1,5-a]pyrazin-8(7H)-one] |
| – | -14% | 195 nM | – | 30 nM | – | – | 242 nM | – | Cc1ccccc1Cn1c(C)cn2c(C3CCOCC3)ncc2c1=O [Example 21, 6-Methyl-7-(2-methylbenzyl)-3-(tetrahydro-2H-pyran-4-yl)imidazo[1,5-a]pyrazin-8(7H)-one] |
| – | -11% | 118 nM | – | 214 nM | – | – | 193 nM | – | COc1ccc(Cn2c(C)cn3c(C(C)(C)O)ncc3c2=O)cc1 [Example 86, 3-(2-hydroxypropan-2-yl)-7-(4-methoxybenzyl)-6-methylimidazo[1,5-a]pyrazin-8(7H)-one] |
| – | -3% | 82 nM | – | 17 nM | – | – | 183 nM | – | Cc1cn2c(C3CCOCC3)ncc2c(=O)n1CC1CCCC1 [Example 63, 7-(cyclopentylmethyl)-6-methyl-3-(tetrahydro-2H-pyran-4-yl)imidazo[1,5-a]pyrazin-8(7H)-one] |
| – | -4% | 2290 nM | – | 1610 nM | – | – | 4440 nM | – | Cc1cc(Cn2c(C)cn3c(C4CCOCC4)ncc3c2=O)on1 [Example 83, 6-methyl-7-((3-methylisoxazol-5-yl)methyl)-3-(tetrahydro-2H-pyran-4-yl)imidazo[1,5-a]pyrazin-8(7H)-one] |
| – | -2% | 218 nM | – | 47 nM | – | – | 234 nM | – | Cc1cn2c(C3(C)CCOCC3)ncc2c(=O)n1Cc1cccc(F)c1 [Example 26, 7-(3-fluorobenzyl)-6-methyl-3-(4-methyltetrahydro-2H-pyran-4-yl)imidazo[1,5-a]pyrazin-8(7H)-one] |
| – | 7% | 1500 nM | – | 1030 nM | – | – | – | 67% | Cc1cc(Cn2c(C)cn3c(C4CCOCC4)ncc3c2=O)no1 [Example 82, 6-methyl-7-((5-methylisoxazol-3-yl)methyl)-3-(tetrahydro-2H-pyran-4-yl)imidazo[1,5-a]pyrazin-8(7H)-one] |
| – | 16% | 249 nM | – | 50 nM | – | – | 493 nM | – | Cc1cn2c(C3(F)CCOCC3)ncc2c(=O)n1Cc1cccc(F)c1 [Example 29, 7-(3-fluorobenzyl)-3-(4-fluorotetrahydro-2H-pyran-4-yl)-6-methylimidazo[1,5-a]pyrazin-8(7H)-one] |
| – | -5% | 25 nM | – | 7 nM | – | – | 11 nM | – | Cc1cn2c(C3CCOCC3)ncc2c(=O)n1CC1CCCCC1 [Example 4, 7-(Cyclohexylmethyl)-6-methyl-3-(tetrahydro-2H-pyran-4-yl)imidazo[1,5-a]pyrazin-8(7H)-one] |
| – | 8% | 297 nM | – | 360 nM | – | – | 236 nM | – | COc1ccc(Cn2c(C)cn3c(C4(C)CNC(=O)C4)ncc3c2=O)cc1 (stereo not shown) [Example 75, 7-(4-methoxybenzyl)-6-methyl-3-(3-methyl-5-oxopyrrolidin-3-yl)imidazo[1,5-a]pyrazin-8(7H)-one] |
| – | 2% | 8 nM | – | 24 nM | – | – | 13 nM | – | COc1ccc(Cn2c(C)cn3c(C4CCOCC4C)ncc3c2=O)cc1 (stereo not shown) [Example 69, 7-(4-methoxybenzyl)-6-methyl-3-(3-methyltetrahydro-2H-pyran-4-yl)imidazo[1,5-a]pyrazin-8(7H)-one] |
| – | -8% | 82 nM | – | 128 nM | – | – | 202 nM | – | COc1ccc(Cn2c(C)cn3c(N4CCCOCC4)ncc3c2=O)cc1 [Example 97, 7-(4-methoxybenzyl)-6-methyl-3-(1,4-oxazepan-4-yl)imidazo[1,5-a]pyrazin-8(7H)-one] |
| – | 5% | 127 nM | – | 1860 nM | – | – | 323 nM | – | CO[C@H]1CC[C@H](Cn2c(C)cn3c(C4CCOCC4)ncc3c2=O)CC1 [Example 68, 7-(((trans)-4-methoxycyclohexyl)methyl)-6-methyl-3-(tetrahydro-2H-pyran-4-yl)imidazo[1,5-a]pyrazin-8(7H)-one] |
| – | 13% | 238 nM | – | 538 nM | – | – | 211 nM | – | COc1ccc(Cn2c(C)cn3c([C@@H](C)c4ccccc4)ncc3c2=O)cc1 [Example 71, (S)-7-(4-methoxybenzyl)-6-methyl-3-(1-phenylethyl)imidazo[1,5-a]pyrazin-8(7H)-one] |
